{"source": "paper PMC11674800", "about": "“Second-Generation Antipsychotics Induce Metabolic Disruption in Adipose Tissue-Derived Mesenchymal Stem Cells Through an aPKC-Dependent Pathway” (Cells, 2024)", "assay_type_in_all_cases": "cell-based, human", "key": {"[1]": {"system": "ADSCs", "assay": "Adipogenic differentiation, lipid droplet staining (HCS LipidTox)", "conditions": "5 µM; after three weeks of differentiation", "experimental": "ADSCs were plated at a density of 70,000 cells/well in a 12-well plate using DMEM with 10% FBS. When the cells reached about 90% confluence, the culture medium was removed and substituted with WAT-differentiating medium containing DMEM 10% FBS, insulin (1 μM), dexamethasone (DEXA, 1 μM), IBMX (0.5 mM), and rosiglitazone ([…]). After 3 days of exposure to the differentiating medium, the cells were cultured in a maintenance medium containing only insulin (1 μM) and rosiglitazone (1 μM) for 14 days. The medium was changed every 3 days. The differentiation results were evaluated by staining the cells with HCS LipidTOX™ for neutral lipids (Thermo Fisher Scientific, Waltham, MA, USA) after 21 days. The cells were fixed using 4% paraformaldehyde (PFA, Sigma-Aldrich, SaintLouis, MO, USA) for 15 min at room temperature; then, each well was stained using HCS LipidTox and Hoechst 33342 and incubated at room temperature for 30 min. After this incubation, the cells were washed with water. Images were acquired using fluorescence microscopy (FLoid Cell Imaging Station, Life Technology, Carlsbad, CA, USA) or light microscopy (DMi1, Leica, Wetzlar, Germany) and analyzed using ImageJ software (v 1.52a)."}, "[2]": {"system": "ADSCs", "assay": "Transferrin uptake (clathrin-dependent endocytosis)", "conditions": "16 h treatment; transferrin 5 min", "experimental": "(§1) For INSRβ endocytosis experiments, the cells were stimulated with 50 ng/mL insulin for 15 min. For transferrin endocytosis experiments, the cells were incubated with 25 μg/mL Transferrin Texas Red for 5 min. After treatment, the cells were washed with PBS and fixed with 4% PFA for 10 min at room temperature, followed by an additional PBS wash. The cells were then permeabilized by incubating them with cold HEPES-Triton X-100 buffer for 5 min at 4 °C. After permeabilization, the cells were incubated with primary antibodies for 30 min, followed by incubation with Alexa Fluor 488- or 546-conjugated secondary antibodies (Invitrogen, Waltham, MA, USA) and phalloidin, labeled with either Alexa Fluor 546 or 633 (Invitrogen Waltham, MA, USA) for 30 min. After incubation, coverslips were mounted on glass slides using a mounting medium. Images were acquired using a confocal microscope (Leica TCS SP8, Wetzlar, Germany) and analyzed using ImageJ (v 1.52a) software in order to quantify and analyze the fluorescence signals."}, "[3]": {"system": "ADSCs", "assay": "Acidic vesicle quantification (Lysotracker)", "experimental": "After treatment, the medium was removed, and the cells were stained with 50 nM Lysotracker Deep Red (Invitrogen, Waltham, MA, USA) and 5 μg/mL Hoechst 33342 (Sigma). Staining was conducted in the dark at 37 °C for 30 min. Fluorescence signals were captured using a FLoid Cell Imaging Station (Life Technology, Carlsbad, CA, USA). The ratio of Lysotracker red signal to blue nuclear signal was quantified using ImageJ software. For acidic vesicle rescue experiments, ADSCs were plated at a concentration of 10,000 cells per well in 48-well plates."}, "[4]": {"system": "TFEB", "assay": "TFEB nuclear localization (confocal microscopy)", "conditions": "5 μM, 16 h; compared to untreated cells", "experimental": "as §1"}}}
{"smiles": "Cc1cc2c(s1)Nc1ccccc1N=C2N1CCN(C)CC1", "note": "[olanzapine]", "values": [{"measurement": "quantity and average size of lipid droplets", "setting": "[1]", "value": "notably decreased"}, {"measurement": "reduction in lipid accumulation", "setting": "[1]", "value": "approximately 30%"}, {"measurement": "short-term transferrin endocytosis", "setting": "[2]", "value": "significant reduction"}, {"measurement": "acidic compartment accumulation (Lysotracker staining)", "setting": "[3]", "value": "progressive time- and dose-dependent increase"}, {"measurement": "concentrations at which acidic compartment accumulation was observed", "setting": "[3]", "value": "below 1 µM"}, {"measurement": "increase in TFEB nuclear localization", "setting": "[4]", "value": 50, "unit": "%"}]}
